Results from patent US20210198256A1, “COMPOUNDS FOR THE DEGRADATION OF BRD9 OR MTH1” (C4 Therapeutics, Inc., priority 2018, published 2021).

These molecules were tested on SMARTCAR-MTH1-wt-HiBiT (Jurkat.7 cells) (assay: HiBit Lytic Assay (HiBit DC50, MTH1 degraders of Table 2)). Settings: Jurkat.7 SMARTCAR-MTH1-wt-HiBiT cells, compound treatment time 4 hr, 11-point half log dose response.
Format: cell-based, human
How it was run: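 Jurkat.7 cells expressing SMARTCAR-MTH1-wt-HiBiT were treated at 37° C with 11-point half-log dilutions (top final 1000 nM or 833 nM, duplicates, 0.1% DMSO). Remaining HiBiT-tagged protein was read by Nano-Glo HiBiT lytic luminescence, normalized to media-only and DMSO controls.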

DC50, < 0.1 µM:
CC(Nc1cccc2c1C(=O)N(C1CCC(=O)NC1=O)C2=O)c1cn(CCCCNC(=O)c2ccc(-c3cc4c(Nc5ccccc5)c(C(=O)NC5CC5)cnc4cc3F)cc2F)nn1 (centres unmarked) [Compound 433, N-cyclopropyl-6-(4-((4-(4-(1-((2-(2,6-dioxopiperidin-3-yl)-1,3-dioxoisoindolin-4-yl)amino)ethyl)-1H-1,2,3-triazol-1-yl)butyl)carbamoyl)-3-fluorophenyl)-7-fluoro-4-(phenylamino)quinoline-3-carboxamide]
CNc1c(C(=O)NC2CC2)cnc2cc(F)c(-c3ccc(C(=O)NCCCCCCCCc4cnc5c(c4)CN(C4CCC(=O)NC4=O)C5=O)c(F)c3)cc12 (centres unmarked) [Compound 405, N-cyclopropyl-6-[4-[8-[6-(2,6-dioxo-3-piperidyl)-7-oxo-5H-pyrrolo[3,4-b]pyridin-3-yl]octylcarbamoyl]-3-fluoro-phenyl]-7-fluoro-4-(methylamino)quinoline-3-carboxamide]
CNC(=O)c1cnc2ccc(NCCCCCCCCCCNC(=O)COc3cccc4c3C(=O)N(C3CCC(=O)NC3=O)C4=O)cc2c1Nc1ccccc1 (centres unmarked) [Compound 449, 6-((10-(2-((2-(2,6-dioxopiperidin-3-yl)-1,3-dioxoisoindolin-4-yl)oxy)acetamido)decyl)amino)-N-methyl-4-(phenylamino)quinoline-3-carboxamide]
O=C1CCC(N2Cc3c(CCCC(O)C(=O)NCCNC(=O)c4ccc(-c5cc6c(Nc7ccccc7)c(C(=O)NC7CC7)cnc6cc5F)cc4F)cccc3C2=O)C(=O)N1 (centres unmarked) [Compound 439, N-cyclopropyl-6-(4-((2-(5-(2-(2,6-dioxopiperidin-3-yl)-1-oxoisoindolin-4-yl)-2-hydroxypentanamido)ethyl)carbamoyl)-3-fluorophenyl)-7-fluoro-4-(phenylamino)quinoline-3-carboxamide]
CNc1c(C(=O)NC2CC2)cnc2cc(C(F)(F)F)c(-c3ccc(C(=O)NCCCCn4cc(C(C)(C)Nc5cccc6c5C(=O)N(C5CCC(=O)NC5=O)C6=O)nn4)c(F)c3)cc12 (centres unmarked) [Compound 435, N-cyclopropyl-6-(4-((4-(4-(2-((2-(2,6-dioxopiperidin-3-yl)-1,3-dioxoisoindolin-4-yl)amino)propan-2-yl)-1H-1,2,3-triazol-1-yl)butyl)carbamoyl)-3-fluorophenyl)-4-(methylamino)-7-(trifluoromethyl)quinoline-3-carboxamide]
COc1cc2ncc(C(=O)NC3CC3)c(Nc3ccccc3)c2cc1-c1ccc(C(=O)NCCCCn2cc(C(C)Nc3cccc4c3C(=O)N(C3CCC(=O)NC3=O)C4=O)nn2)c(F)c1 (centres unmarked) [Compound 432, N-cyclopropyl-6-(4-((4-(4-(1-((2-(2,6-dioxopiperidin-3-yl)-1,3-dioxoisoindolin-4-yl)amino)ethyl)-1H-1,2,3-triazol-1-yl)butyl)carbamoyl)-3-fluorophenyl)-7-methoxy-4-(phenylamino)quinoline-3-carboxamide]
CNC(=O)c1cnc2ccc(-c3ccc(C(=O)NCCCCNC(=O)CN(C)c4cccc5c4C(=O)N(C4CCC(=O)NC4=O)C5=O)cc3)cc2c1Nc1ccccc1 (centres unmarked) [Compound 474, 6-(4-((4-(2-((2-(2,6-dioxopiperidin-3-yl)-1,3-dioxoisoindolin-4-yl)(methyl)amino)acetamido)butyl)carbamoyl)phenyl)-N-methyl-4-(phenylamino)quinoline-3-carboxamide]
CNC(=O)c1cnc2cc(C(F)(F)F)c(-c3ccc(C(=O)NCCCCNC(=O)CNc4cccc5c4C(=O)N(C4CCC(=O)NC4=O)C5=O)nc3)cc2c1Nc1ccccc1 (centres unmarked) [Compound 388, 6-(6-((4-(2-((2-(2,6-dioxopiperidin-3-yl)-1,3-dioxoisoindolin-4-yl)amino)acetamido)butyl)carbamoyl)pyridin-3-yl)-N-methyl-4-(phenylamino)-7-(trifluoromethyl)quinoline-3-carboxamide]
NC(=O)c1cnc2ccc(-c3ccc(C(=O)NCCCNC(=O)COc4cccc5c4C(=O)N(C4CCC(=O)NC4=O)C5=O)cc3)cc2c1Nc1ccccc1 (centres unmarked) [Compound 306, 6-(4-((3-(2-((2-(2,6-dioxopiperidin-3-yl)-1,3-dioxoisoindolin-4-yl)oxy)acetamido)propyl)carbamoyl)phenyl)-4-(phenylamino)quinoline-3-carboxamide]
CNc1c(C(=O)NC2CC2)cnc2cc(F)c(-c3ccc(C(=O)NCCCCn4cc(C(C)(C)Nc5cccc6c5C(=O)N(C5CCC(=O)NC5=O)C6=O)nn4)c(F)c3)cc12 (centres unmarked) [Compound 436, N-cyclopropyl-6-(4-((4-(4-(2-((2-(2,6-dioxopiperidin-3-yl)-1,3-dioxoisoindolin-4-yl)amino)propan-2-yl)-1H-1,2,3-triazol-1-yl)butyl)carbamoyl)-3-fluorophenyl)-7-fluoro-4-(methylamino)quinoline-3-carboxamide]
CNC(=O)c1cnc2cc(OC)c(-c3ccc(C(=O)NCCCCNC(=O)[C@@H](C)Nc4cccc5c4C(=O)N(C4CCC(=O)NC4=O)C5=O)nc3)cc2c1Nc1ccccc1 (stereo partly drawn) [Compound 382, 6-(6-((4-((2R)-2-((2-(2,6-dioxopiperidin-3-yl)-1,3-dioxoisoindolin-4-yl)amino)propanamido)butyl)carbamoyl)pyridin-3-yl)-7-methoxy-N-methyl-4-(phenylamino)quinoline-3-carboxamide]
CNC(=O)c1cnc2ccc(C(=O)NCCCCCCCCNC(=O)COc3cccc4c3C(=O)N(C3CCC(=O)NC3=O)C4=O)cc2c1Nc1ccccc1 (centres unmarked) [Compound 453, N6-(8-(2-((2-(2,6-dioxopiperidin-3-yl)-1,3-dioxoisoindolin-4-yl)oxy)acetamido)octyl)-N3-methyl-4-(phenylamino)quinoline-3,6-dicarboxamide]
CNC(=O)c1cnc2ccc(NCCCCCCCCCCNC(=O)COc3cccc4c3C(=O)N(C3CCC(=O)NC3=O)C4=O)cc2c1NCc1ccccc1 (centres unmarked) [Compound 448, 4-(benzylamino)-6-((10-(2-((2-(2,6-dioxopiperidin-3-yl)-1,3-dioxoisoindolin-4-yl)oxy)acetamido)decyl)amino)-N-methylquinoline-3-carboxamide]
O=C1CCC(N2C(=O)c3cccc(OCc4cn(CCCCNC(=O)c5ccc(-c6cc7c(Nc8ccccc8)c(C(=O)NC8CC8)cnc7cc6F)cc5F)nn4)c3C2=O)C(=O)N1 (centres unmarked) [Compound 413, 4-anilino-N-cyclopropyl-6-[4-[4-[4-[[2-(2,6-dioxo-3-piperidyl)-1,3-dioxo-isoindolin-4-yl]oxymethyl]triazol-1-yl]butylcarbamoyl]-3-fluoro-phenyl]-7-fluoro-quinoline-3-carboxamide]
